# Biological target: Human factor D (Homo sapiens (Human), UniProt P00746)
# Assay type: biochemical
# Details: not given
# Chain of Human factor D (P00746 26-253 limits assumed): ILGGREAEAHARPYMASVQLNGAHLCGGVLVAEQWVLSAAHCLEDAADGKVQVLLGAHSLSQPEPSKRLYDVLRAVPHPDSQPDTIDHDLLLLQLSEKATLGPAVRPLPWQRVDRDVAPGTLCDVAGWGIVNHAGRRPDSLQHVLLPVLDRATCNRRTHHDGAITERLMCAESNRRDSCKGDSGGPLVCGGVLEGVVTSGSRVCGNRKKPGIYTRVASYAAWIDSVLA
row,SMILES,IC50
1,"CC(=O)c1cn(CC(=O)N2C[C@H](F)C[C@H]2C(=O)NCc2cccc(Cl)c2F)c2cc(OC(=O)NCCc3nn[nH]n3)ccc12 [Compound 5, 3-acctyl-1-(2-((2S,4R)-2-(3-chloro-2-fluorobenzylcarbamoyl)-4-fluoropyrrolidin-1-yl)-2-oxoethyl)-1H-indol-6-yl 2-(2H-tetrazol-5-yl)ethylcarbamate]",< 1 µM
2,"CC(=O)c1cn(CC(=O)N2C[C@H](F)C[C@H]2C(=O)NCc2cccc(Cl)c2F)c2ccc(OC(=O)NCCc3c[nH]cn3)cc12 [Compound 15, 3-acctyl-1-(2-((2S,4R)-2-(3-chloro-2-fluorobenzylcarbamoyl)-4-fluoropyrrolidin-1-yl)-2-oxoethyl)-1H-indol-5-yl 2-(1H-imidazol-4-yl)ethylcarbamate]",< 1 µM
3,"CC(=O)c1cn(CC(=O)N2C[C@H](F)C[C@H]2C(=O)NCc2cccc(Cl)c2F)c2ccc(OC(=O)NC3CC3)cc12 [Compound 8, 3-acetyl-1-(2-((2S,4R)-2-(3-chloro-2-fluorobenzylcarbamoyl)-4-fluoropyrrolidin-1-yl)-2-oxoethyl)-1H-indol-5-yl cyclopropylcarbamate]",< 1 µM
4,"CC(=O)c1cn(CC(=O)N2C[C@H](F)C[C@H]2C(=O)NCc2cccc(Cl)c2F)c2ccc(OC(=O)NCc3cscn3)cc12 [Compound 2, 3-acctyl-1-(2-((2S,4R)-2-(3-chloro-2-fluorobenzylcarbamoyl)-4-fluoropyrrolidin-1-yl)-2-oxoethyl)-1H-indol-5-yl thiazol-4-ylmethylcarbamate]",< 1 µM
5,"CC(=O)c1cn(CC(=O)N2C[C@H](F)C[C@H]2C(=O)NCc2cccc(Cl)c2F)c2cc(OC(=O)NCCP(=O)(O)O)ccc12 [Compound 6, 2-((3-acctyl-1-(2-((2S,4R)-2-(3-chloro-2-fluorobenzylcarbamoyl)-4-fluoropyrrolidin-1-yl)-2-oxoethyl)-1H-indol-6-yloxy)carbonylamino) ethylphosphonic acid]",< 1 µM
6,"CC(=O)c1cn(CC(=O)N2C[C@H](F)C[C@H]2C(=O)NCc2cccc(Cl)c2F)c2cc(OC(=O)NCc3cscn3)ccc12 [Compound 3, 3-acctyl-1-(2-((2S,4R)-2-(3-chloro-2-fluorobenzylcarbamoyl)-4-fluoropyrrolidin-1-yl)-2-oxoethyl)-1H-indol-6-yl thiazol-4-ylmethylcarbamate]",< 1 µM
7,"CC(=O)c1cn(CC(=O)Oc2ccc3c(c2)c(C(C)=O)cn3CC(=O)N2C[C@H](F)C[C@H]2C(=O)NCc2cccc(Cl)c2F)c2ccc(O)cc12 [Compound 1, 3-acetyl-1-(2-((2S,4R)-2-(3-chloro-2-fluorobcnzylcarbamoyl)-4-fluoropyrrolidin-1-yl)-2-oxoethyl)-1H-indol-5-yl 2-(3-acctyl-5-hydroxy-1H-indol-1-yl)acctate]",< 1 µM
8,"CC(=O)c1cn(CC(=O)N2C[C@H](F)C[C@H]2C(=O)NCc2cccc(Cl)c2F)c2ccc(OC(=O)NCc3nnn[nH]3)cc12 [Compound 10, 3-acetyl-1-(2-((2S,4R)-2-(3-chloro-2-fluorobenzylcarbamoyl)-4-fluoropyrrolidin-1-yl)-2-oxoethyl)-1H-indol-5-yl (1H-tetrazol-5-yl)methylcarbamate]",< 1 µM
9,"CC(=O)c1cn(CC(=O)N2C[C@H](F)C[C@H]2C(=O)NCc2cccc(Cl)c2F)c2ccc(OC(=O)NCc3ncccn3)cc12 [Compound 13, 3-acctyl-1-(2-((2S,4R)-2-(3-chloro-2-fluorobenzylcarbamoyl)-4-fluoropyrrolidin-1-yl)-2-oxoethyl)-1H-indol-5-yl pyrimidin-2-ylmethylcarbamate]",< 1 µM
10,"CC(=O)c1cn(CC(=O)N2C[C@H](F)C[C@H]2C(=O)NCc2cccc(Cl)c2F)c2ccc(OC(=O)NCc3cocn3)cc12 [Compound 9, 3-acctyl-1-(2-((2S,4R)-2-(3-chloro-2-fluorobenzylcarbamoyl)-4-fluoropyrrolidin-1-yl)-2-oxoethyl)-1H-indol-5-yl oxazol-4-ylmethylcarbamate]",< 1 µM
11,"CC(=O)c1cn(CC(=O)N2C[C@H](F)C[C@H]2C(=O)NCc2cccc(Cl)c2F)c2cc(C(=O)C[S+](C)[O-])ccc12 (stereo partly drawn) [Compound 11, (2S,4R)-1-(2-(3-acetyl-6-(2-(methylsulfinyl)acetyl)-1H-indol-1-yl)acetyl)-N-(3-chloro-2-fluorobenzyl)-4-fluoropyrrolidine-2-carboxamide]",< 1 µM
12,"CC(=O)c1cn(CC(=O)N2C[C@H](F)C[C@H]2C(=O)NCc2cccc(Cl)c2F)c2cc(OC(=O)NCc3ccc(B(O)O)cc3)ccc12 [Compound 7, 4-(((3-acetyl-1-(2-((2S,4R)-2-(3-chloro-2-fluorobenzylcarbamoyl)-4-fluoropyrrolidin-1-yl)-2-oxoethyl)-1H-indol-6-yloxy)carbonylamino)methyl)phenylboronic acid]",< 1 µM
13,"CC(=O)c1cn(CC(=O)N2C[C@H](F)C[C@H]2C(=O)NCc2cccc(Cl)c2F)c2ccc(OC(=O)N3CCOCC3)cc12 [Compound 12, 3-acetyl-1-(2-((2S,4R)-2-(3-chloro-2-fluorobenzylcarbamoyl)-4-fluoropyrrolidin-1-yl)-2-oxoethyl)-1H-indol-5-yl morpholine-4-carboxylate]",< 1 µM
14,"CC(=O)c1cn(CC(=O)N2C[C@H](F)C[C@H]2C(=O)NCc2cccc(Cl)c2F)c2cc(OC(=O)NCc3nn[nH]n3)ccc12 [Compound 4, 3-acetyl-1-(2-((2S,4R)-2-(3-chloro-2-fluorobenzylcarbamoyl)-4-fluoropyrrolidin-1-yl)-2-oxoethyl)-1H-indol-6-yl (2H-tetrazol-5-yl)methylcarbamate]",< 1 µM
15,"CC(=O)c1cn(CC(=O)N2C[C@H](F)C[C@H]2C(=O)NCc2cccc(Cl)c2F)c2ccc(OC(=O)NCCc3nn[nH]n3)cc12 [Compound 14, 3-acctyl-1-(2-((2S,4R)-2-(3-chloro-2-fluorobenzylcarbamoyl)-4-fluoropyrrolidin-1-yl)-2-oxoethyl)-1H-indol-5-yl 2-(2H-tetrazol-5-yl)ethylcarbamate]",< 1 µM

# Same assay, conditions: factor D 80 nM, substrate Z-L-Lys-SBzl 100 μM, DTNB, pH 7.5
row,SMILES,IC50
1,"CC(=O)c1cn(CC(=O)N2C[C@H](F)C[C@H]2C(=O)NCc2cccc(Cl)c2F)c2ccc(OC(=O)N3CCNCC3)cc12 [Compound 16, 3-acetyl-1-(2-((2S,4R)-2-(3-chloro-2-fluorobenzylcarbamoyl)-4-fluoropyrrolidin-1-yl)-2-oxoethyl)-1H-indol-5-yl piperazine-1-carboxylate]",< 1 µM

# Source: patent US9732103B2 (priority 2014, dated 2017)
